According to patent US5846723A, “Methods for detecting the RNA component of telomerase” (Geron Corporation, priority 1996, dated 1998):

What was measured:
[1] = test system: hTR in the context of the native telomerase enzyme; experiment: RNase H cleavage of hTR directed by antisense DNA oligonucleotides in native telomerase; type: biochemical, human; settings: for RNaseH Digestion?: antisense DNA oligo, cleavage of hTR in native RNP, Table II; for ability to direct RNase H cleavage of hTR: native telomerase enzyme
Excerpt: The regions were identified in two ways. The first way involved contacting samples containing human telomerase with a variety of DNA polynucleotides having sequences complementary to the sequence of hTR under hybridization conditions, contacting the telomerase with RNase H, which cleaves the RNA strand of an RNA-DNA duplex, and determining whether hTR had been cleaved. […] The second way involved oligo-decoration. […] Other accessible areas of hTR can be identified by similar assays using antisense polynucleotides whose sequences are substantially complementary to a nucleotide sequence selected from hTR.
A set of 17 contiguous antisense DNA oligonucleotides (30 mers) were tested for their ability to direct RNase H cleavage of hTR in the context of the native telomerase enzyme. […] Antisense oligonucleotides "14", "16", and "21" (see Table II) were tested as potential inhibitors of human telomerase ("hTase").
The accessible regions were "fine mapped" by using shorter antisense oligonucleotides to direct RNase H cleavage of hTR.

telomerase [2] = experiment: Capture of active telomerase on streptavidin beads by biotinylated 2'OMe antisense analogs; type: binding, human; settings: for Capture? (2'OMe): biotinylated 2'OMe antisense RNA analog of the oligo, streptavidin beads; for Capture? (2'OMe) / Activity on beads: Table II; for capture of active telomerase on streptavidin beads: biotinylated 2'OMe analogs; for Activity on beads: telomerase activity on beads after capture by 2'OMe analog
Excerpt: On the bases of the antisense data, biotinylated 2'OMe antisense RNA analogs were designed for affinity purification of telomerase. The goal of the antisense affinity approach was to design ligands that afforded good purification and yield, while keeping the enzyme intact (i.e., active). Several 2'OMe ligands met our criteria (Table II, FIG. 1). […] These analogs were further refined via the synthesis of second generation antisense affinity ligands, which were designed to allow release of active telomerase (reversible ligands). Currently, our affinity scheme consists of two reversible antisense ligands, which are employed in series, and target two different regions of hTR. The first ligand is a disulfide version of 14ab which allows release of telomerase via dithiothreitol treatment. The second ligand contains the 21ab1 antisense sequence and plus a tail of "nonsense" sequence. hTR is released from the antisense ligand by a displacement DNA oligonucleotide, which is complementary to the entire length of the 21ab1 antisense affinity ligand.

[3] = test system: human telomerase ("hTase"); experiment: Inhibition of human telomerase, standard primer elongation assay; type: biochemical; settings: preincubation of partially purified nuclear or cytoplasmic extract with oligonucleotide
telomerase [4] = experiment: Capture of telomerase on an affinity matrix; type: binding, human
[5] = test system: telomerase ribonucleoprotein; experiment: Oligodecoration: native gel mobility shift with labeled 2'-O-methyl antisense polynucleotides; type: binding, human; settings: radioactively labeled 2'-O-methyl antisense polynucleotide; altered mobility on native gel
Experimental: Oligodecoration was used to further identify accessible regions of the telomerase ribonucleoprotein. Radioactively labeled 2 0-methyl antisense polynucleotides were prepared and exposed to the telomerase ribonucleoprotein. The sample was incubated to allow the polynucleotide to bind to telomerase. Then the sample was run on a native gel. […] RP2 has the sequence CGG GCC AGC AGC TGA CA (SEQ ID NO:14).

Substance | RNaseH Digestion? [1] | Capture? (2'OMe) (telomerase [2]) | ability to direct RNase H cleavage of hTR [1] | also measured
5' CATTTTTTGTTTGCTCTAGA 3' (antisense CATTTTTTGTTTGCTCTAGA; chemistry not given here) [20/21, antisense 20 mer] | yes |  |  | 
5' CCAACTCTTCGCGGTGGCAG 3' (antisense CCAACTCTTCGCGGTGGCAG; chemistry not given here) [Oligo 16bc, antisense 20 mer of the "16" region] | yes | yes | directed RNase H cleavage | 
5' CCTGCGGCCTGAAACGGTGA 3' (antisense CCTGCGGCCTGAAACGGTGA; chemistry not given here) [Oligo 14bc, antisense 20 mer of the "14" region] | no |  |  | 
5' CGT TCC TCT TCC 3' (antisense CGTTCCTCTTCC; biotinylated 2'OMe, further chemistry not given here) [Oligo 14d, antisense 12 mer of the "14" region; biotinylated 2'OMe analog used for capture] | yes | yes | directed RNase H cleavage | capture of active telomerase on streptavidin beads (telomerase [2]): "captured" active telomerase; Activity on beads (telomerase [2]): yes
5' CGT TCC TCT TCC TGC G9C CT 3' [Oligo 14ab] | yes | yes | directed RNase H cleavage | capture of active telomerase on streptavidin beads (telomerase [2]): "captured" active telomerase; Activity on beads (telomerase [2]): yes
5' CGTTCCTCTTCCTGCGGCCTGAAACGGTGA 3' (antisense CGTTCCTCTTCCTGCGGCCTGAAACGGTGA; chemistry not given here) [Oligo 14, antisense DNA 30 mer against hTR nucleotides 350-380] | yes |  | directed efficient cleavage of hTR | inhibition of hTase activity [3]: did not significantly affect hTase activity
5' CTGACAGAGCCCAACTCTTC 3' (antisense CTGACAGAGCCCAACTCTTC; chemistry not given here) [Oligo 16ab, antisense 20 mer of the "16" region] | yes | yes | directed RNase H cleavage | Activity on beads (telomerase [2]): no
5' CTGACAGAGCCCAACTCTTCGCGGTGGCAG 3' (antisense CTGACAGAGCCCAACTCTTCGCGGTGGCAG; chemistry not given here) [Oligo 16, antisense DNA 30 mer against hTR nucleotides 290-319] | yes |  | directed efficient cleavage of hTR | inhibition of hTase activity [3]: did not significantly affect hTase activity
5' GCT CTA G 3' [Oligo 21ab1] | yes | yes |  | capture of active telomerase on streptavidin beads (telomerase [2]): "captured" active telomerase; Activity on beads (telomerase [2]): yes
5' GCT CTA GAA TG 3' (antisense GCTCTAGAATG; chemistry not given here) [Oligo 21ab2, shorter antisense oligo of the "21" region] | yes | yes |  | 
5' GCT CTA GAA TGA ACG 3' (antisense GCTCTAGAATGAACG; chemistry not given here) [Oligo 21ab3, shorter antisense oligo of the "21" region] | yes |  |  | 
5' GCT CTA GAA TGA ACG GTG G 3' (antisense GCTCTAGAATGAACGGTGG; chemistry not given here) [Oligo 21ab, shorter antisense oligo of the "21" region] | yes | yes |  | 
5' GCTCTAGAATGAACGGTGGAAGGCGGCAGG 3' (antisense GCTCTAGAATGAACGGTGGAAGGCGGCAGG; chemistry not given here) [Oligo 21, antisense DNA 30 mer directed against nucleotides 137 to 166 of hTR] | yes |  | directed efficient cleavage of hTR | inhibition of hTase activity [3]: potent inhibition of hTase
CGG GCC AGC AGC TGA CA (antisense CGGGCCAGCAGCTGACA; 2'-O-methyl, further chemistry not given here) [RP2] |  |  |  | ability to capture telomerase on an affinity matrix (telomerase [4]): demonstrated an ability to capture telomerase; binding to the telomerase ribonucleoprotein [5]: found to bind
